Data published in patent US20080103205A1, “Pesticidal compositions and methods of use” (priority 2006, published 2008).

What was measured:
[1] = test system: Meloidogyne incognita eggs; experiment: M. incognita egg hatching; format: in vivo
Experimental: Meloidogyne incognita (plant parasitic nematode) eggs were collected from tomato plant roots and were suspended in water. The solution was either diluted or concentrated to adjust the egg load to about 5000/ml. AT stock solutions prepared in DMSO and 300 ul of test solution was placed in a well, along with 20 ul of aqueous solution containing eggs. The number of eggs in 20 ul solution ranged from 115 to 143 (n=10). Each treatment (2, 5, 10, 20, or 40 ppm) was replicated 5 times. Microplates were sealed with Parafilm™ and incubated at room temperature. Similar tests conducted with 0.2% DMSO alone served as controls. Egg hatching was monitored at 24, 72, 120, and 168 hr after incubation. Both moving and non-moving nematodes were counted to arrive at the number of eggs hatched. Proportion of egg hatch was calculated as the number of juveniles divided by total number of eggs.
VSCC blockers effect on M. incognita egg hatching is shown in the following tables where % hatched is rounded to the nearest percentage point and where “% C*” is % hatch, normalized to control.

[2] = test system: European corn borer (Ostrinia nubilalis); experiment: Diet surface test on European corn borer larvae (2nd instar); format: in vivo; conditions: for No. dead: 10 larvae
Experimental: Concentrations of 6.25, 12.5, 25, or 50 ppm AT blocker were prepared in 95% ethyl alcohol (EtOH). 95% EtOH alone served as control. European corn borer (ECB) diet prepared from the powdered diet supplied by French Agricultural Research, Inc. Diet (1-2 ml) was poured into small cups and allowed to cool to room temperature. Test solution (100 ul) was placed onto the diet surface and allowed to evaporate the solvent. Each concentration of chemical had 2 sets of 10 cups each. One late 2nd instar larva was placed in each cup and covered with lid having perforations for aeration. Cups were placed in an incubator for 7 days at 25±1° C. and 70±5% RH. After seven days, the weight of each larva was taken and any mortality was recorded. Then, the surviving larvae were transferred to fresh diet cups holding sufficient diet (5-6 ml) without chemicals and incubated at 25±1° C. and 70±5% RH until pupation. Weights of larvae were taken 14 days after transferring to fresh diet (21 days after start of treatment). Finally, the number of days until pupation was recorded.
Anion transporters caused larval death and a reduction in weight gain within 7 days exposure. The effect persisted for 2 weeks time on untreated diet, but total time to pupation was relatively unaffected.

`O=C(O)c1cc([N+](=O)[O-])ccc1NCCCc1ccccc1` [NPPB, 5-Nitro-2-(3-phenylpropylamino)benzoic acid] was tested, and the “Eggs Hatched %” value ([1]; 2 ppm, 24 hr) was 10%, the “Eggs Hatched % C* (% hatch, normalized to control)” value ([1]; 2 ppm, 24 hr) was 100% and the “Eggs Hatched No.” value ([1]; 2 ppm, 24 hr) was 61. The “Eggs Hatched %” value ([1]; 2 ppm, 72 hr) was 14%, the “Eggs Hatched % C* (% hatch, normalized to control)” value ([1]; 2 ppm, 72 hr) was 87% and the “Eggs Hatched No.” value ([1]; 2 ppm, 72 hr) was 92. The “Eggs Hatched %” value ([1]; 2 ppm, 120 hr) was 19%, the “Eggs Hatched % C* (% hatch, normalized to control)” value ([1]; 2 ppm, 120 hr) was 86% and the “Eggs Hatched No.” value ([1]; 2 ppm, 120 hr) was 127. For the same compound, the “Eggs Hatched %” value ([1]; 2 ppm, 168 hr) was 23%, the “Eggs Hatched % C* (% hatch, normalized to control)” value ([1]; 2 ppm, 168 hr) was 83% and the “Eggs Hatched No.” value ([1]; 2 ppm, 168 hr) was 155. The “Eggs Hatched %” value ([1]; 5 ppm, 24 hr) was 10%, the “Eggs Hatched % C* (% hatch, normalized to control)” value ([1]; 5 ppm, 24 hr) was 100% and the “Eggs Hatched No.” value ([1]; 5 ppm, 24 hr) was 58. For the same compound, the “Eggs Hatched %” value ([1]; 5 ppm, 72 hr) was 14%, the “Eggs Hatched % C* (% hatch, normalized to control)” value ([1]; 5 ppm, 72 hr) was 87% and the “Eggs Hatched No.” value ([1]; 5 ppm, 72 hr) was 86. The “Eggs Hatched %” value ([1]; 5 ppm, 120 hr) was 18%, the “Eggs Hatched % C* (% hatch, normalized to control)” value ([1]; 5 ppm, 120 hr) was 82% and the “Eggs Hatched No.” value ([1]; 5 ppm, 120 hr) was 118. The “Eggs Hatched %” value ([1]; 5 ppm, 168 hr) was 22%, the “Eggs Hatched % C* (% hatch, normalized to control)” value ([1]; 5 ppm, 168 hr) was 79% and the “Eggs Hatched No.” value ([1]; 5 ppm, 168 hr) was 149. The “Eggs Hatched %” value ([1]; 10 ppm, 24 hr) was 9%, the “Eggs Hatched % C* (% hatch, normalized to control)” value ([1]; 10 ppm, 24 hr) was 90% and the “Eggs Hatched No.” value ([1]; 10 ppm, 24 hr) was 58. For the same compound, the “Eggs Hatched %” value ([1]; 10 ppm, 72 hr) was 12%, the “Eggs Hatched % C* (% hatch, normalized to control)” value ([1]; 10 ppm, 72 hr) was 75% and the “Eggs Hatched No.” value ([1]; 10 ppm, 72 hr) was 82. For the same compound, the “Eggs Hatched %” value ([1]; 10 ppm, 120 hr) was 16%, the “Eggs Hatched % C* (% hatch, normalized to control)” value ([1]; 10 ppm, 120 hr) was 72% and the “Eggs Hatched No.” value ([1]; 10 ppm, 120 hr) was 105. For the same compound, the “Eggs Hatched %” value ([1]; 10 ppm, 168 hr) was 20%, the “Eggs Hatched % C* (% hatch, normalized to control)” value ([1]; 10 ppm, 168 hr) was 71% and the “Eggs Hatched No.” value ([1]; 10 ppm, 168 hr) was 129. For the same compound, the “Eggs Hatched %” value ([1]; 20 ppm, 24 hr) was 9%, the “Eggs Hatched % C* (% hatch, normalized to control)” value ([1]; 20 ppm, 24 hr) was 90% and the “Eggs Hatched No.” value ([1]; 20 ppm, 24 hr) was 52. The “Eggs Hatched %” value ([1]; 20 ppm, 72 hr) was 11%, the “Eggs Hatched % C* (% hatch, normalized to control)” value ([1]; 20 ppm, 72 hr) was 69% and the “Eggs Hatched No.” value ([1]; 20 ppm, 72 hr) was 67. For the same compound, the “Eggs Hatched %” value ([1]; 20 ppm, 120 hr) was 14%, the “Eggs Hatched % C* (% hatch, normalized to control)” value ([1]; 20 ppm, 120 hr) was 64% and the “Eggs Hatched No.” value ([1]; 20 ppm, 120 hr) was 85. For the same compound, the “Eggs Hatched %” value ([1]; 20 ppm, 168 hr) was 17%, the “Eggs Hatched % C* (% hatch, normalized to control)” value ([1]; 20 ppm, 168 hr) was 61% and the “Eggs Hatched No.” value ([1]; 20 ppm, 168 hr) was 106. The “Eggs Hatched %” value ([1]; 40 ppm, 24 hr) was 8%, the “Eggs Hatched % C* (% hatch, normalized to control)” value ([1]; 40 ppm, 24 hr) was 80% and the “Eggs Hatched No.” value ([1]; 40 ppm, 24 hr) was 47. For the same compound, the “Eggs Hatched %” value ([1]; 40 ppm, 72 hr) was 11%, the “Eggs Hatched % C* (% hatch, normalized to control)” value ([1]; 40 ppm, 72 hr) was 69% and the “Eggs Hatched No.” value ([1]; 40 ppm, 72 hr) was 61. The “Eggs Hatched %” value ([1]; 40 ppm, 120 hr) was 11%, the “Eggs Hatched % C* (% hatch, normalized to control)” value ([1]; 40 ppm, 120 hr) was 50% and the “Eggs Hatched No.” value ([1]; 40 ppm, 120 hr) was 74. For the same compound, the “Eggs Hatched %” value ([1]; 40 ppm, 168 hr) was 12%, the “Eggs Hatched % C* (% hatch, normalized to control)” value ([1]; 40 ppm, 168 hr) was 43% and the “Eggs Hatched No.” value ([1]; 40 ppm, 168 hr) was 82. It also gave a No. dead ([2]; 6.25 ppm, 7 days after feeding) of 0, a No. dead ([2]; 6.25 ppm, 21 days after feeding) of 0 and a No. dead ([2]; 12.5 ppm, 7 days after feeding) of 0. The No. dead ([2]; 12.5 ppm, 21 days after feeding) was 0, the No. dead ([2]; 25 ppm, 21 days after feeding) was 2 and the Days for pupation ([2]; 50 ppm) was 0 days. For the same compound, the No. dead ([2]; 50 ppm, 7 days after feeding) was 8, the “% wt reduction to control” value ([2]; 50 ppm, 21 days after feeding) was 0% and the “Mean wt of survived larvae, mg” value ([2]; 50 ppm, 21 days after feeding) was 0 mg. For the same compound, the No. dead ([2]; 50 ppm, 21 days after feeding) was 10, the mortality at 6.25 ppm ([2]; Ostrinia nubilalis, 168 h, 6.25 ppm, 7 days after feeding) was 0% and the mortality at 12.5 ppm ([2]; Ostrinia nubilalis, 168 h, 12.5 ppm, 7 days after feeding) was 0%. The mortality at 50 ppm ([2]; Ostrinia nubilalis, 168 h, 50 ppm, 7 days after feeding) was 80%, the mortality at 6.25 ppm ([2]; Ostrinia nubilalis, 504 h, 6.25 ppm, 21 days after feeding) was 0% and the mortality at 12.5 ppm ([2]; Ostrinia nubilalis, 504 h, 12.5 ppm, 21 days after feeding) was 0%. For the same compound, the mortality at 25 ppm ([2]; Ostrinia nubilalis, 504 h, 25 ppm, 21 days after feeding) was 20% and the mortality at 50 ppm ([2]; Ostrinia nubilalis, 504 h, 50 ppm, 21 days after feeding) was 100%.
